Legend:
[1] = test system: ruminal microbial urease; assay: Urease inhibition assay (Berthelot alkaline phenol-hypochlorite method); format: biochemical, rumen bacteria of Chinese Holstein dairy cows
Method: Rumen fluid samples were collected from five Chinese Holstein dairy cows with permanent rumen fistula 3 h after feeding a total mixed ration in the morning. All the operations were conducted in accordance with the protocol approved by the Animal Care and Use Committee for Livestock of the Institute of Animal Sciences, Chinese Academy of Agricultural Sciences (Permit Number: IAS2019-14, Permit Date: 22-03-2019). All rumen fluid samples were filtered by a six layer sterilized medical gauze and mixed in a sterilized beaker before being evenly distributed into different 50 mL tubes and stored in liquid nitrogen. The deforested samples were centrifuged at 12,000× g for 10 min at 4 °C, then the supernatant was removed from the tube. The remaining sediments were resuspended in a HEPES buffer solution (pH 7.5, 50 mM) and then centrifuged at 12,000× g for 10 min at 4 °C. The supernatant was discarded and the remaining rumen bacteria were collected and stored at −80 °C for later urease extraction. All the sample handing processes were conducted on an ice bath. […]
In vitro urease inhibition screening assays were conducted to further narrow the virtual screened compounds for further IC50 determination and kinetic characterization. […] The ammonia that was produced was measured using 50 μL of a phenol reagent containing 10.0 g/L phenol and 50 mg/L of sodium nitroprusside, and 50 μL of alkali reagent containing 5 g/L sodium hydroxide and 8.4 mL/L of sodium hypochlorite solution, at 37 °C for 30 min. The absorbance of each well was measured at 625 nm by a micro plate spectrophotometer (Thermo Scientific Varioskan Flash G-282, Thermo Scientific, Waltham, MA, USA). The endogenous nitrogen (blank) was measured by adding a 70 μL HEPES buffer (pH 7.5, 50 mM) containing no urea and 20 μL methanol solution in the first 30 min of the reaction mixture. The 100% initial activity was determined by adding a 15 μL methanol solution in the first 30 min of the reaction mixture. […]

[2] = test system: ruminal microbiota; assay: Chemical degradation rate of compound in ruminal microbial fermentation (UPLC-HRMS); details: 100 μM
Method: The generation fermentation experiments were performed in anaerobic tubes containing 5 mL of an anaerobic medium, and in total, six generations of fermentation were performed. Altogether 54 tubes were prepared with nine tubes for each generation of fermentation. […] For the AHA treated group, the AHA working solution was prepared by diluting 3.76 mg AHA with 10 mL of methanol (5000 μM AHA). […] For the control group, the working solution contained only the solvent (methanol). All the working solutions were filtered by 0.22 μm of a membrane filter (Millipore Express PES Membrane, MILLEX GP). For each group, 100 µL of the working solution was added to each tube to mix with the anaerobic medium. […] Before the inoculation of each tube in each generation with fresh rumen fluid, 100 µL of the anaerobic urea solution was extracted from the anaerobic bottle using a syringe and filtered through 0.22 μm membrane filters, and then injected to the anaerobic tube to make the urea concentration at 16.65 mM in the tube. […] The NH4-N and Urea-N concentration was measured by the Berthelot alkaline phenol-hypochlorite method and the diacetyl monoxime method kit (Nanjing Jiancheng Co., Nanjing, China) following the manufacturer’s protocol. […]

COc1ccc(-c2ccc(CCC(=O)O)n2NC(N)=O)cc1 [6238-0047, 3-[1-[(aminocarbonyl)amino]-5-(4-methoxyphenyl)-1H-pyrrol-2-yl] propanoic acid]
Percentage of inhibition against ruminal microbial urease ([1]; 0.5 mM compound, compared with other candidate compounds): superior ruminal microbial urease inhibition capacity | IC50 ([1]; ruminal microbial urease, 37 °C, 30 min, pH 7.5): 65.9 µM | 24 h degradation rate ([2]; first-generation ruminal microbial culture): 3.32% | 24 h degradation rate ([2]; sixth generation ruminal microbial culture): 16.00%
